This is an account of results in patent US20260083851A1 (AVILAR THERAPEUTICS, INC., priority 2022, published 2026).

pKd: −log10 of the molar value.

What is called pKd is −log10 of the Kd, conventionally taken in molar units.

The first assay concerns the target T1, ASGP receptor (biotinylated ASGPR) (Homo sapiens, UniProt P07306).
T1 construct: biotin (biotinylated)
T1 sequence (P07306 1-291): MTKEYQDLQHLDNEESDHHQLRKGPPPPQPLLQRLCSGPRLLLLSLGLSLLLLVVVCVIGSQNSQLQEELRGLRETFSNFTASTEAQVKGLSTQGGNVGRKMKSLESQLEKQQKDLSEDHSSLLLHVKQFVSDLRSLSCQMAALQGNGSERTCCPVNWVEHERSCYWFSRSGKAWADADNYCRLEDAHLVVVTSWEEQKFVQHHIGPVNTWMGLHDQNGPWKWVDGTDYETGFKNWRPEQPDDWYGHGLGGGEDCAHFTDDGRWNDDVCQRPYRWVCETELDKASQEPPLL
The format is binding. The conditions noted are these: SPR, Biacore 8K, 25° C.; Table 1C, numeric bound; read-out: ASGPR KD. For orientation: SPR reads the build-up and loss of mass on a sensor chip optically.
Regarding `OC[C@H]1O[C@@H](c2ccccc2)[C@H](Oc2cccc(C(F)(F)F)n2)[C@@H](O)[C@H]1O` [A208, (2R,3R,4S,5R,6S)-2-(hydroxymethyl)-6-phenyl-5-((6-(trifluoromethyl)pyridin-2-yl)oxy)tetrahydro-2H-pyran-3,4-diol], the pKd is less than 4.52.

Staying with this assay, now noted: SPR, Biacore 8K, 25° C.; Table 1C; read-out: ASGPR KD.
With `N#Cc1ncc(OC[C@H]2OC[C@H](Nc3cncc(C(F)(F)F)n3)[C@@H](O)[C@H]2O)cn1` [A203, 5-(((2R,3R,4R,5S)-3,4-dihydroxy-5-((6-(trifluoromethyl)pyrazin-2-yl)amino)tetrahydro-2H-pyran-2-yl)methoxy)pyrimidine-2-carbonitrile], the pKd is more than 5.00.
The same measure, in the same setting: to `O=C(O)c1ccc(CN2CCN(C[C@H]3OC[C@H](Nc4cncc(C(F)(F)F)n4)[C@@H](O)[C@H]3O)CC2)cc1F` [A204, 4-((4-(((2R,3R,4R,5S)-3,4-dihydroxy-5-((6-(trifluoromethyl)pyrazin-2-yl)amino)tetrahydro-2H-pyran-2-yl)methyl)piperazin-1-yl)methyl)-2-fluorobenzoic acid] belongs more than 5.00.
On the same count and under the same terms, to `O=C(O)c1ccc(CN2CCN(C[C@H]3OC[C@H](Nc4cncc(C(F)(F)F)n4)[C@@H](O)[C@H]3O)CC2)nn1` [A205, 6-((4-(((2R,3R,4R,5S)-3,4-dihydroxy-5-((6-(trifluoromethyl)pyrazin-2-yl)amino)tetrahydro-2H-pyran-2-yl)methyl)piperazin-1-yl)methyl)pyridazine-3-carboxylic acid] belongs more than 5.00.
The same measure, in the same setting: for `O=C(O)CN1CCC(N2CCN(C[C@H]3OC[C@H](Nc4cncc(C(F)(F)F)n4)[C@@H](O)[C@H]3O)CC2)CC1` [A206, 2-(4-(4-(((2R,3R,4R,5S)-3,4-dihydroxy-5-((6-(trifluoromethyl)pyrazin-2-yl)amino)tetrahydro-2H-pyran-2-yl)methyl)piperazin-1-yl)piperidin-1-yl)acetic acid] the value was more than 5.00; for `O=C(O)c1ccc(N2CCN(C[C@H]3OC[C@H](Nc4cncc(C(F)(F)F)n4)[C@@H](O)[C@H]3O)CC2)nn1` [A207, 6-(4-(((2R,3R,4R,5S)-3,4-dihydroxy-5-((6-(trifluoromethyl)pyrazin-2-yl)amino)tetrahydro-2H-pyran-2-yl)methyl)piperazin-1-yl)pyridazine-3-carboxylic acid], more than 5.00.
With `O[C@@H]1[C@H](O)[C@@H](Nc2cncc(C(F)(F)F)n2)CO[C@@H]1Cc1nnc(-c2ccccc2)o1` [A209, (2R,3R,4R,5S)-2-((5-phenyl-1,3,4-oxadiazol-2-yl)methyl)-5-((6-(trifluoromethyl)pyrazin-2-yl)amino)tetrahydro-2H-pyran-3,4-diol], the pKd is more than 5.00.
The same measure, in the same setting: for `O[C@@H]1[C@H](O)[C@@H](Oc2cncc(C(F)(F)F)n2)CO[C@@H]1COc1ccc(Br)c(F)c1` [A210, (2R,3R,4S,5S)-2-((4-bromo-3-fluorophenoxy)methyl)-5-((6-(trifluoromethyl)pyrazin-2-yl)oxy)tetrahydro-2H-pyran-3,4-diol] the value was more than 5.00.
On the same count and under the same terms, to `O[C@@H]1[C@H](O)[C@@H](Nc2cncc(C(F)(F)F)n2)CO[C@@H]1COc1cccnn1` [A212, (2R,3R,4R,5S)-2-((pyridazin-3-yloxy)methyl)-5-((6-(trifluoromethyl)pyrazin-2-yl)amino)tetrahydro-2H-pyran-3,4-diol] belongs more than 5.00; to `CC(C)(C)OC(=O)N1CCN(c2ccc(OC[C@H]3OC[C@H](Oc4cccc(C(F)(F)F)n4)[C@@H](O)[C@H]3O)cc2F)CC1` [A213, tert-butyl 4-(4-(((2R,3R,4S,5S)-3,4-dihydroxy-5-((6-(trifluoromethyl)pyridin-2-yl)oxy)tetrahydro-2H-pyran-2-yl)methoxy)-2-fluorophenyl) piperazine-1-carboxylate], more than 5.00.
The same measure, in the same setting: to `C#C[C@H]1O[C@H](C)[C@H](O)[C@H](O)[C@H]1Oc1cccc(C(F)(F)F)n1` [A214, (2R,3R,4S,5R,6R)-6-ethynyl-2-methyl-5-((6-(trifluoromethyl)pyridin-2-yl)oxy)tetrahydro-2H-pyran-3,4-diol] belongs more than 5.00; to `O=C(O)c1ccc(-c2ccc(OC[C@H]3OC[C@H](Nc4cncc(C(F)(F)F)n4)[C@@H](O)[C@H]3O)cc2)cc1` [A215, 4′-(((2R,3R,4R,5S)-3,4-dihydroxy-5-((6-(trifluoromethyl)pyrazin-2-yl)amino)tetrahydro-2H-pyran-2-yl)methoxy)-[1,1′-biphenyl]-4-carboxylic acid], more than 5.00.
Turning to `O[C@@H]1[C@H](O)[C@@H](Oc2cccc(C(F)(F)F)n2)CO[C@@H]1COc1cccnn1` [A216, (2R,3R,4S,5S)-2-((pyridazin-3-yloxy)methyl)-5-((6-(trifluoromethyl)pyridin-2-yl)oxy)tetrahydro-2H-pyran-3,4-diol], the pKd was more than 5.00.
As for `C[C@H]1O[C@H](c2cn(C3CCN(C(=O)OC(C)(C)C)CC3)nn2)[C@H](Oc2cccc(C(F)(F)F)n2)[C@@H](O)[C@H]1O` [A217, tert-butyl 4-(4-((2R,3R,4S,5R,6R)-4,5-dihydroxy-6-methyl-3-((6-(trifluoromethyl)pyridin-2-yl)oxy)tetrahydro-2H-pyran-2-yl)-1H-1,2,3-triazol-1-yl)piperidine-1-carboxylate], the pKd was more than 5.00.
Same read-out and setting: for `C[C@H]1O[C@H](c2cn(C3CCNCC3)nn2)[C@H](Oc2cccc(C(F)(F)F)n2)[C@@H](O)[C@H]1O` [A218, (2R,3R,4S,5R,6R)-2-methyl-6-(1-(piperidin-4-yl)-1H-1,2,3-triazol-4-yl)-5-((6-(trifluoromethyl)pyridin-2-yl)oxy)tetrahydro-2H-pyran-3,4-diol] the value was more than 5.00.
For `C#C[C@H]1OC[C@H](Oc2cccc(C(F)(F)F)n2)[C@@H](O)[C@H]1O` [A219, (2R,3R,4S,5S)-2-ethynyl-5-((6-(trifluoromethyl)pyridin-2-yl)oxy)tetrahydro-2H-pyran-3,4-diol], the pKd was more than 5.00.
For the compound `CC(C)(C)OC(=O)N1CCC(n2cc([C@H]3OC[C@H](Oc4cccc(C(F)(F)F)n4)[C@@H](O)[C@H]3O)nn2)CC1` [A220, tert-butyl 4-(4-((2R,3R,4S,5S)-3,4-dihydroxy-5-((6-(trifluoromethyl)pyridin-2-yl)oxy)tetrahydro-2H-pyran-2-yl)-1H-1,2,3-triazol-1-yl)piperidine-1-carboxylate], the pKd is more than 5.00.
As to `O=C(O)c1ccc(-c2ccc(OC[C@H]3OC[C@H](Oc4cccc(C(F)(F)F)n4)[C@@H](O)[C@H]3O)cc2)nn1` [A221, 6-(4-(((2R,3R,4S,5S)-3,4-dihydroxy-5-((6-(trifluoromethyl)pyridin-2-yl)oxy)tetrahydro-2H-pyran-2-yl)methoxy)phenyl)pyridazine-3-carboxylic acid], the pKd was more than 5.00.
`OCc1cnc(OC[C@H]2OC[C@H](Nc3cncc(C(F)(F)F)n3)[C@@H](O)[C@H]2O)nc1` [A222, (2R,3R,4R,5S)-2-(((5-(hydroxymethyl)pyrimidin-2-yl)oxy)methyl)-5-((6-(trifluoromethyl)pyrazin-2-yl)amino)tetrahydro-2H-pyran-3,4-diol]: the pKd was more than 5.00.
Regarding `O=C(O)c1ccc(N2CCN(C[C@H]3OC[C@H](Nc4cncc(C(F)(F)F)n4)[C@@H](O)[C@H]3O)CC2)cc1` [A223, 4-(4-(((2R,3R,4R,5S)-3,4-dihydroxy-5-((6-(trifluoromethyl)pyrazin-2-yl)amino)tetrahydro-2H-pyran-2-yl)methyl)piperazin-1-yl) benzoic acid], the pKd is more than 5.00.
Take `O[C@@H]1[C@H](O)[C@@H](Oc2cccc(C(F)(F)F)n2)CO[C@@H]1c1cn(C2CCNCC2)nn1` [A224, (2R,3R,4S,5S)-2-(1-(piperidin-4-yl)-1H-1,2,3-triazol-4-yl)-5-((6-(trifluoromethyl)pyridin-2-yl)oxy)tetrahydro-2H-pyran-3,4-diol]: the pKd was more than 5.00.
With `O=C(O)c1ccc(-c2ccc(OC[C@H]3OC[C@H](Nc4cccc(C(F)(F)F)n4)[C@@H](O)[C@H]3O)cc2)cc1` [A225, 4′-(((2R,3R,4R,5S)-3,4-dihydroxy-5-((6-(trifluoromethyl)pyridin-2-yl)amino)tetrahydro-2H-pyran-2-yl)methoxy)-[1,1′-biphenyl]-4-carboxylic acid], the pKd was more than 5.00.
With `O[C@@H]1[C@H](O)[C@@H](Nc2cccc(C(F)(F)F)n2)CO[C@@H]1COc1ncccn1` [A226, (2R,3R,4R,5S)-2-((pyrimidin-2-yloxy)methyl)-5-((6-(trifluoromethyl)pyridine-2-yl)amino)tetrahydro-2H-pyran-3,4-diol], the pKd is more than 5.00.
The same measure, in the same setting: to `O[C@@H]1[C@H](O)[C@@H](Nc2cccc(C(F)(F)F)n2)CO[C@@H]1COc1cccnn1` [A227, (2R,3R,4R,5S)-2-((pyridazin-3-yloxy)methyl)-5-((6-(trifluoromethyl)pyridine-2-yl)amino)tetrahydro-2H-pyran-3,4-diol] belongs more than 5.00; to `O=C(O)c1ccc(-c2ccc(OC[C@H]3OC[C@H](Oc4cccc(C(F)(F)F)n4)[C@@H](O)[C@H]3O)cc2)cc1` [A228, 4′-(((2R,3R,4S,5S)-3,4-dihydroxy-5-((6-(trifluoromethyl)pyridin-2-yl)oxy)tetrahydro-2H-pyran-2-yl)methoxy)-[1,1′-biphenyl]-4-carboxylic acid], more than 5.00; to `O[C@@H]1[C@H](O)[C@@H](Oc2cccc(C(F)(F)F)n2)CO[C@@H]1COc1cnccn1` [A229, (2R,3R,4S,5S)-2-((pyrazin-2-yloxy)methyl)-5-((6-(trifluoromethyl)pyridin-2-yl)oxy)tetrahydro-2H-pyran-3,4-diol], more than 5.00.
The same measure, in the same setting: for `CC(C)(C)OC(=O)N1CC2CN(C[C@H]3OC[C@H](Nc4cncc(C(F)(F)F)n4)[C@@H](O)[C@H]3O)CC21` (stereo partly drawn) [A230, tert-butyl 3-(((2R,3R,4R,5S)-3,4-dihydroxy-5-((6-(trifluoromethyl)pyrazin-2-yl)amino)tetrahydro-2H-pyran-2-yl)methyl)-3,6-diazabicyclo [3.2.0] heptane-6-carboxylate] the value was more than 5.00.
